Here are results for 17 compounds from paper PMC6522510 (Nature Communications, 2019).

What all share (set-up): species or system AML cell lines (8); Primary HTS, single concentration about 10 uM, Cell Titer Glo viability; log10 luminescence, per cent inhibition relative to cycloheximide control
Holding throughout (details): 72 h, relative to cycloheximide control, log10 luminescence; inhibitor
A general note: ATP-based viability assays read luminescence as a measure of living cells.

In assay [1] the test system is MV4-11.
Assay [2] relates to MOLM-13.
Assay [3] has as its system CMS.
Assay [4] relates to ML-2.
The subject of assay [5] is CHRF288-11.
Assay [6] relates to U937.
In assay [7] the test system is M07e.
The subject of assay [8] is CMK.

Structures can show the parent of a compound that is named as a salt. Numbered stars: 1 amine (or outer) side, 2 acyl side, 3 side chain; on linkers, the order of the positions; unused ones are H or OH. Peptide text beside a SMILES is read from it. CO = O=C([*:1])[*:2]

With `COC(=O)[C@H](CC(C)C)NC(=O)[C@@H](O)[C@H](N)Cc1ccccc1` [SJ000772416-1, BESTATIN METHYL ESTER], the MV4-11 %inh in assay [1] came to 8.922%. The MOLM-13 %inh in assay [2] is reported as -1.654%. Moreover, the CMS %inh in assay [3] is on record as 2.851%. Further, in assay [4], the ML-2 %inh is 3.75%. The CHRF288-11 %inh in assay [5] is listed as 5.118%. In assay [6], the U937 %inh is reported as 22.26%. In assay [7], the M07e %inh was 3.275%. Also, the CMK %inh in assay [8] is recorded as 1.43%.
Turning to `CC(=O)Nc1cccc(-n2c(=O)n(C3CC3)c(=O)c3c(Nc4ccc(I)cc4F)n(C)c(=O)c(C)c32)c1` [SJ000574293-1, TRAMETINIB | GSK-1120212B | JTP-74057 | 1120212 | GSK-1120212 | GSK1120212 | TRAMETINIB (GSK1120212)], the MV4-11 %inh in assay [1] amounted to 40.11%. Also, the MOLM-13 %inh in assay [2] amounted to 39.84%. Also, the CMS %inh in assay [3] came out at 21.59%. In addition, in assay [4], the ML-2 %inh turned out to be 27.14%. The CHRF288-11 %inh in assay [5] is 30.11%. The U937 %inh in assay [6] worked out at 11.49%. Also, the M07e %inh in assay [7] is given as 16.11%. The CMK %inh in assay [8] is given as 4.055%.
With `COc1cc2ncnc(Nc3ccc(C)c(O)c3)c2cc1OC` [SJ000573090-1, U13103/179/1], the MV4-11 %inh in assay [1] is on record as 0.6335%. In assay [2], the MOLM-13 %inh worked out at 7.874%. Besides, the CMS %inh in assay [3] turned out to be 0.3431%. In addition, the ML-2 %inh in assay [4] was -3.545%. In addition, in assay [5], the CHRF288-11 %inh is recorded as 0.5463%. In assay [6], the U937 %inh worked out at 0.4968%. The M07e %inh in assay [7] is on record as -0.2224%. The CMK %inh in assay [8] is given as 1.416%.
In the case of `CCn1c(-c2nonc2N)nc2c(N3CCCC3)nccc21` [SJ000573261-1, DW100508-128A1], the MV4-11 %inh in assay [1] was 6.029%. The MOLM-13 %inh in assay [2] came out at 1.048%. The CMS %inh in assay [3] turned out to be 5.321%. In assay [4], the ML-2 %inh worked out at 3.187%. Further, the CHRF288-11 %inh in assay [5] amounted to 2.981%. For the same compound, the U937 %inh in assay [6] is -1.967%. Also, the M07e %inh in assay [7] amounted to 5.656%. Further, the CMK %inh in assay [8] came out at 3.861%.
As for `CCn1nc(C(=O)O)c(=O)c2cc3c(cc21)OCO3` [SJ000285711-7, CINOXACIN], the MV4-11 %inh in assay [1] is given as 3.259%. The MOLM-13 %inh in assay [2] is 1.821%. Besides, the CMS %inh in assay [3] stood at 0.852%. The ML-2 %inh in assay [4] is -1.975%. Moreover, the CHRF288-11 %inh in assay [5] was 0.6656%. Also, the U937 %inh in assay [6] stood at 2.404%. Moreover, the M07e %inh in assay [7] is given as 5.282%. Besides, the CMK %inh in assay [8] is reported as 0.4853%.
Take `Nc1c(C(=O)c2cccc(-c3ccncc3)c2)cnn1-c1ccc(F)cc1` [SJ000581172-1]: the MV4-11 %inh in assay [1] is 2.351%. Further, the MOLM-13 %inh in assay [2] stood at 5.84%. In assay [3], the CMS %inh is on record as 2.678%. Moreover, the ML-2 %inh in assay [4] is 3.419%. The CHRF288-11 %inh in assay [5] was -2.059%. For the same compound, the U937 %inh in assay [6] worked out at 13.25%. In addition, the M07e %inh in assay [7] is 6.562%. Also, the CMK %inh in assay [8] is 6.56%.
For `C[C@@H](Oc1cc(-n2cnc3ccc(OC[C@@H](O)CO)cc32)sc1C(N)=O)c1ccccc1Cl` [SJ000573335-1, U22436/41/1], the MV4-11 %inh in assay [1] is 65.42%. Besides, the MOLM-13 %inh in assay [2] was found to be 82.19%. Besides, the CMS %inh in assay [3] came to 71.91%. Also, in assay [4], the ML-2 %inh turned out to be 25.64%. In addition, the CHRF288-11 %inh in assay [5] is on record as 63.27%. For the same compound, the U937 %inh in assay [6] was determined as 86.31%. For the same compound, the M07e %inh in assay [7] was 110.3%. Further, the CMK %inh in assay [8] is given as 83.74%.
For the compound `Cn1cc(C2=C(c3c4n(c5ccccc35)CCNC4)C(=O)NC2=O)c2ccccc21` [SJ000581080-1], the MV4-11 %inh in assay [1] was 15.28%. Further, the MOLM-13 %inh in assay [2] amounted to 62.95%. Besides, the CMS %inh in assay [3] was 16.83%. Further, the ML-2 %inh in assay [4] is on record as 12.57%. For the same compound, in assay [5], the CHRF288-11 %inh was 19.49%. The U937 %inh in assay [6] worked out at 18.44%. In assay [7], the M07e %inh was determined as 25.69%. The CMK %inh in assay [8] amounted to 60.56%.
On to `ON=C1CCc2cc(-c3nc(C4CCNCC4)[nH]c3-c3ccncc3)ccc21` [SJ000573159-1, DD48690-004A1], for which the MV4-11 %inh in assay [1] is recorded as -4.441%. In addition, the MOLM-13 %inh in assay [2] stood at 2.332%. For the same compound, the CMS %inh in assay [3] worked out at 1.757%. Besides, in assay [4], the ML-2 %inh came to 3.813%. The CHRF288-11 %inh in assay [5] was -1.561%. For the same compound, the U937 %inh in assay [6] is given as -1.918%. The M07e %inh in assay [7] came out at 1.161%. The CMK %inh in assay [8] was -2.711%.
For `CC(C)[C@H](NC(=O)[C@H](CCCNC(=N)N)NC(=O)N[C@@H](Cc1ccccc1)C(=O)O)C(=O)N[C@H](C=O)CCCNC(=N)N` [SJ000772410-1, ANTIPAIN, DIHYDROCHLORIDE] ({Phe-CO}-Arg-Val-Arg-aldehyde), the MV4-11 %inh in assay [1] was -1.834%. For the same compound, the MOLM-13 %inh in assay [2] is on record as -3.916%. The CMS %inh in assay [3] came out at 2.317%. In assay [4], the ML-2 %inh is given as 0.8211%. Moreover, the CHRF288-11 %inh in assay [5] amounted to 4.85%. The U937 %inh in assay [6] was -3.748%. Further, the M07e %inh in assay [7] is given as -0.5062%. In addition, in assay [8], the CMK %inh is recorded as -5.865%.
As for `CC(=O)NCc1cccc(C#Cc2cncnc2Nc2ccc(OCc3cccc(F)c3)c(Cl)c2)c1` [SJ000573245-1, U17810/92/1], the MV4-11 %inh in assay [1] came out at 1.627%. The MOLM-13 %inh in assay [2] stood at 4.772%. Also, the CMS %inh in assay [3] is given as 2.982%. The ML-2 %inh in assay [4] was determined as 1.051%. Besides, the CHRF288-11 %inh in assay [5] was -2.703%. Besides, in assay [6], the U937 %inh was determined as 4.477%. In addition, the M07e %inh in assay [7] was found to be 1.428%. In addition, in assay [8], the CMK %inh was determined as 4.208%.
Turning to `COc1c(N2CCNC(C)C2)c(F)cc2c(=O)c(C(=O)O)cn(C3CC3)c12` (stereo not shown) [SJ000286066-3, GATIFLOXACIN], the MV4-11 %inh in assay [1] is on record as -0.7209%. In addition, the MOLM-13 %inh in assay [2] is 8.563%. The CMS %inh in assay [3] is recorded as -1.278%. In addition, the ML-2 %inh in assay [4] is 1.743%. Besides, the CHRF288-11 %inh in assay [5] was determined as 7.116%. In assay [6], the U937 %inh stood at 2.127%. In addition, the M07e %inh in assay [7] stood at 0.9683%. The CMK %inh in assay [8] amounted to 1.598%.
Consider `CS(=O)(=O)CCNCc1ccc(-c2ccc3ncnc(Nc4ccc(OCc5ccccc5)c(Cl)c4)c3c2)o1` [SJ000573004-1, U12816/179/1], for which the MV4-11 %inh in assay [1] is given as 1.075%. In assay [2], the MOLM-13 %inh is recorded as -1.767%. Further, the CMS %inh in assay [3] is reported as -1.14%. Besides, the ML-2 %inh in assay [4] turned out to be 2.349%. In assay [5], the CHRF288-11 %inh was 2.861%. Besides, the U937 %inh in assay [6] is reported as -2.727%. Moreover, the M07e %inh in assay [7] is on record as -1.936%. For the same compound, the CMK %inh in assay [8] is 1.726%.
Turning to `COc1ccccc1-c1cc(/C=C2\C(=O)Nc3ncc(Br)cc32)cc(Br)c1O` [SJ000573253-1, U16719/161/1], the MV4-11 %inh in assay [1] is given as 0.2955%. Also, the MOLM-13 %inh in assay [2] is on record as -1.113%. Moreover, the CMS %inh in assay [3] was -1.153%. In addition, the ML-2 %inh in assay [4] was found to be 1.918%. The CHRF288-11 %inh in assay [5] was -3.427%. The U937 %inh in assay [6] was -3.171%. In addition, in assay [7], the M07e %inh was determined as 2.858%. In addition, the CMK %inh in assay [8] worked out at 2.536%.
With `Cc1cc(O)cc(C)c1/C=C/c1cncc(-c2nn[nH]n2)c1` [SJ000573052-1, T252/80/1], in assay [1], the MV4-11 %inh is reported as -3.299%. The MOLM-13 %inh in assay [2] is recorded as -1.521%. Further, the CMS %inh in assay [3] was -2.3%. The ML-2 %inh in assay [4] is -1.281%. Moreover, the CHRF288-11 %inh in assay [5] is listed as -3.388%. Also, in assay [6], the U937 %inh is reported as -3.239%. The M07e %inh in assay [7] was -1.115%. In addition, in assay [8], the CMK %inh is -5.146%.
For the compound `CC1(OC(=O)C2CCCC2)C(=O)C=C2C=C(c3ccsc3)N(CCCCO)C=C2C1=O` (stereo not shown) [SJ000579780-1], in assay [1], the MV4-11 %inh is recorded as -0.2702%. The MOLM-13 %inh in assay [2] amounted to 6.828%. Moreover, in assay [3], the CMS %inh was determined as 0.1638%. The ML-2 %inh in assay [4] is recorded as -1.026%. Besides, in assay [5], the CHRF288-11 %inh is given as -0.7955%. In addition, the U937 %inh in assay [6] is -0.2771%. In assay [7], the M07e %inh is -0.9393%. For the same compound, in assay [8], the CMK %inh is listed as -4.183%.
Regarding `CCN1CCC(CC(=O)Nc2n[nH]c3nc(-c4cccs4)c(Br)cc23)CC1` [SJ000573264-1, AG201339-025C2], the MV4-11 %inh in assay [1] was 29.41%. Besides, the MOLM-13 %inh in assay [2] came out at 8.584%. In assay [3], the CMS %inh amounted to 7.013%. Also, the ML-2 %inh in assay [4] is given as -1.837%. Also, the CHRF288-11 %inh in assay [5] worked out at 10.8%. For the same compound, the U937 %inh in assay [6] is 1.142%. Besides, in assay [7], the M07e %inh was 7.209%. For the same compound, the CMK %inh in assay [8] is listed as 18.01%.
